In patent publication US6462047B1, “Carboline derivatives as cGMP phosphodiesterase inhibitors” (ICOS Corporation, priority 2001, dated 2002):

Key:
[1] = system: Rat aortic smooth muscle cells (RSMC); test: cGMP level measurements in ANF-stimulated rat aortic smooth muscle cells; type: cell-based; details: 30 minutes at 37° C. with compound, then ANF (100 nM) for 10 minutes, dose giving half of the stimulation at saturating concentrations
Protocol: Rat aortic smooth muscle cells (RSMC), prepared according to Chamley et al., Cell Tissue Res., 177, 503-522 (1977), were used between the 10th and 25th passage at confluence in 24-well culture dishes. Culture media was aspirated and replaced with PBS (0.5 ml) containing the compound tested at the appropriate concentration. After 30 minutes at 37° C., particulates guanylate cyclase was stimulated by addition of ANF (100 nM) for 10 minutes. At the end of incubation, the medium was withdrawn, and two extractions were performed by addition of 65% ethanol (0.25 ml). The two ethanolic extracts were pooled and evaporated until dryness, using a Speed-vac system. cGMP was measured after acetylation by scintillation proximity immunoassay (AMERSHAM). The EC50 values are expressed as the dose-giving half of the stimulation at saturating concentrations.

[2] = target: human recombinant PDE5 (Homo sapiens, UniProt O76074); test: Inhibitory effect on cGMP-PDE (one-step assay adapted from Wells et al.); type: biochemical; details: human recombinant PDE5, 0.15 μM 8-[H3]-cGMP, 30 minutes incubation, 2% DMSO
Protocol: cGMP-PDE activity of compounds of the present invention was measured using a one-step assay adapted from Wells et al., Biochim. Biophys. Acta, 384, 430 (1975). The reaction medium contained 50 mM Tris-HCl, pH 7.5, 5 mM magnesium acetate, 250 μg/ml 5′-Nucleotidase, 1 mM EGTA, and 0.15 μM 8-[H^3]-cGMP. The enzyme used was a human recombinant PDE5 (ICOS Corp., Bothell, Wash.).
Compounds of the invention were dissolved in DMSO finally present at 2% in the assay.

[3] = system: conscious spontaneously hypertensive rats (SHRs); test: Hypotensive effects in conscious spontaneously hypertensive rats; type: in vivo, rat; details: orally 5 mg/kg in 5% DMF and 95% olive oil; AUC from 0 to 5 hours of the fall in blood pressure
Protocol: The hypotensive effects of compounds according to the invention as identified in Table 2 were studied in conscious spontaneously hypertensive rats (SHRs). The compounds were administered orally at a dose of 5 mg/kg in a mixture of 5% DMF and 95% olive oil. Blood pressure was measured from a catheter inserted in the carotid artery and recorded for five hours after administration. The results are expressed as Area Under the Curve (AUC) from 0 to 5 hours, mm Hg.hours of the fall in blood pressure over time.

Compound	EC50 [1] [nM]	IC50 [2] [nM]	melting point [°C]	SHR AUC PO [3] [mm Hg.h]
O=C(/C=C/c1ccncc1)N1CCc2c([nH]c3ccccc23)C1c1ccc2c(c1)OCO2 (centres unmarked) [Example 4]	500	46	224 to 225	
O=C(O)c1ccc(/C=C/C(=O)N2CCc3c([nH]c4ccccc34)[C@H]2c2ccc3c(c2)CCO3)nc1 [Example 12, (E)-(R)-6-{3-[1-(2,3-Dihydrobenzofuran-5-yl)-2,3,4,9-tetrahydro-β-carbolin-2-yl]-3-oxo-propenyl}-nicotinic acid]	5000	3	183	
CN1CCN(c2ncc(/C=C/C(=O)N3CCc4c([nH]c5ccccc45)[C@H]3c3ccc4c(c3)CCO4)cn2)CC1 [Example 23]	< 1000	8		108
O=C(/C=C/c1ccc([N+](=O)[O-])s1)N1CCc2c([nH]c3ccccc23)[C@H]1c1ccc2c(c1)CCO2 [Example 26, (E)-1R-1-[1-(2,3-Dihydrobenzofuran-5-yl)-2,3,4,9-tetrahydro-β-carboline-2-yl]-3-(5-nitro-thiophen-2-yl)-propene-1-one]	< 1000	40		
CN(C)Cc1ccc(/C=C/C(=O)N2CCc3c([nH]c4ccccc34)[C@H]2c2ccc3c(c2)CCO3)o1 [Example 17, (E)-1R-1-[1-(2,3-Dihydrobenzofuran-5-yl)-2,3,4,9-tetrahydro-β-carboline-2-yl]-3-(5-dimethylaminomethyl-furan-2-yl)-propene-1-one]	< 1000	20		40
CN(C)Cc1ccc(/C=C/C(=O)N2CCc3c([nH]c4ccccc34)[C@H]2c2ccc3c(c2)CCO3)s1 [Example 14, (E)-1R-1-[1-(2,3-Dihydrobenzofuran-5-yl)-2,3,4,9-tetrahydro-β-carboline-2-yl]-3-(5-dimethylaminomethyl-thiophen-2-yl)-propene-1-one]	1500	5		107
CN(C)CCOc1ccc(/C=C/C(=O)N2CCc3c([nH]c4ccccc34)[C@H]2c2ccc3c(c2)CCO3)cn1 [Example 6, (E)-1R-1-[1-(2,3-Dihydrobenzofuran-5-yl)-2,3,4,9-tetrahydro-β-carbolin-2-yl]-3-[6-(2-dimethylaminoethoxy)-pyridin-3-yl]-propene-1-one]	< 1000	10	155	95
CN(C)Cc1occc1/C=C/C(=O)N1CCc2c([nH]c3ccccc23)[C@H]1c1ccc2c(c1)CCO2 [Example 19, (E)-1R-1-[1-(2,3-Dihydrobenzofuran-5-yl)-2,3,4,9-tetrahydro-β-carboline-2-yl]-3-(2-dimethylaminomethyl-furan-3-yl)-propene-1-one]	4000	40		
CN(C)c1ccc(/C=C/C(=O)N2CCc3c([nH]c4ccccc34)[C@H]2c2ccc3c(c2)CCO3)cn1 [Example 7, (E)-(R)-1-[1-(2,3-Dihydrobenzofuran-5-yl)-2,3,4,9-tetrahydro-β-carbolin-2-yl]-3-(6-dimethylamino-pyridin-3-yl)-propene-1-one]	< 1000	6	171	156
O=C(/C=C/c1cccnc1)N1CCc2c([nH]c3ccccc23)C1c1ccc2c(c1)OCO2 (stereo not drawn) [Example 1, (E)-1-[1-(3,4-Methylenedioxyphenyl)-2,3,4,9-tetrahydro-β-carbolin-2-yl]-3-(pyridin-3-yl)-propene-1-one]	500	58	240	61
CN(C)Cc1ccc(/C=C/C(=O)N2CCc3c([nH]c4ccccc34)[C@H]2c2ccc3c(c2)CCO3)cn1 [Example 13, (E)-(R)-1-[1-(2,3-Dihydrobenzofuran-5-yl)-2,3,4,9-tetrahydro-β-carbolin-2-yl]-3-(6-dimethylaminomethyl-pyridin-3-yl)-propene-1-one]	< 1000	30	163	57
CN1CCN(c2ccc(/C=C/C(=O)N3CCc4c([nH]c5ccccc45)[C@H]3c3ccc4c(c3)CCO4)cn2)CC1 [Example 9, (E)-(R)-1-[1-(2,3-Dihydrobenzofuran-5-yl)-2,3,4,9-tetrahydro-β-carbolin-2-yl]-3-[6-(4-methylpiperazin-1-yl)-pyridin-3-yl]-propene-1-one]	1000	25	> 260	63
O=C(/C=C/c1cccnc1)N1CCc2c([nH]c3ccccc23)C1c1ccc2c(c1)CCO2 (stereo not drawn) [Example 5, (E)-1-[1-(2,3-Dihydrobenzofuran-5-yl)-2,3,4,9-tetrahydro-β-carbolin-2-yl]-3-(pyridin-3-yl)-propene-1-one]	< 1000	14	221 to 222	12
O=C(/C=C/c1cnc(N2CCCC2)nc1)N1CCc2c([nH]c3ccccc23)[C@H]1c1ccc2c(c1)CCO2 [Example 22]	< 1000	6		9
O=C(/C=C/c1ccc(N2CCCC2)nc1)N1CCc2c([nH]c3ccccc23)[C@H]1c1ccc2c(c1)CCO2 [Example 10, (E)-(R)-1-[1-(2,3-Dihydrobenzofuran-5-yl)-2,3,4,9-tetrahydro-β-carbolin-2-yl]-3-(6-pyrrolidin-1-yl-pyridin-3-yl)-propene-1-one]	< 1000	9	201	
CNc1ccc(/C=C/C(=O)N2CCc3c([nH]c4ccccc34)[C@H]2c2ccc3c(c2)CCO3)cn1 [Example 8, (E)-(R)-1-[1-(2,3-Dihydrobenzofuran-5-yl)-2,3,4,9-tetrahydro-β-carbolin-2-yl]-3-(6-methylaminopyridin-3-yl)-propene-1-one]	< 1000	7	171	50
CN1CCN(Cc2ccc(/C=C/C(=O)N3CCc4c([nH]c5ccccc45)[C@H]3c3ccc4c(c3)CCO4)s2)CC1 [Example 16, (E)-1R-1-[1-(2,3-Dihydrobenzofuran-5-yl)-2,3,4,9-tetrahydro-β-carboline-2-yl]-3-(4-methyl-piperazin-1-ylmethyl-thiophen-2-yl)-propene-1-one]	3500	4		
O=C(/C=C/c1ccc(CN2CCCC2)s1)N1CCc2c([nH]c3ccccc23)[C@H]1c1ccc2c(c1)CCO2 [Example 15, (E)-1R-1-[1-(2,3-Dihydrobenzofuran-5-yl)-2,3,4,9-tetrahydro-β-carboline-2-yl]-3-(5-pyrrolidin-1-ylmethyl-thiophen-2-yl)-propene-1-one]	1500	40		96
COC(=O)c1ccc(/C=C/C(=O)N2CCc3c([nH]c4ccccc34)[C@H]2c2ccc3c(c2)CCO3)nc1 [Example 11, (E)-(R)-6-{3-[1-(2,3-Dihydrobenzofuran-5-yl)-2,3,4,9-tetrahydro-β-carbolin-2-yl]-3-oxo-propenyl}-nicotinic acid methyl ester]	< 1000	27	> 260	
O=C(/C=C/c1ccccn1)N1CCc2c([nH]c3ccccc23)C1c1ccccc1 (stereo not drawn) [Example 3, (E)-1-[1-phenyl-2,3,4,9-tetrahydro-β-carbolin-2-yl]-3-(pyridin-2-yl)-propene-1-one]		740	130 to 135	
O=C(/C=C/c1cncnc1)N1CCc2c([nH]c3ccccc23)[C@H]1c1ccc2c(c1)CCO2 [Example 20, (E)-1R-1-[1-(2,3-Dihydrobenzofuran-5-yl)-2,3,4,9-tetrahydro-β-carboline-2-yl]-3-(pyrimidin-5-yl)-propene-1-one]	< 1000	40		48
Nc1ncc(/C=C/C(=O)N2CCc3c([nH]c4ccccc34)[C@H]2c2ccc3c(c2)CCO3)cn1 [Example 21, (E)-1R-1-[1-(2,3-Dihydrobenzofuran-5-yl)-2,3,4,9-tetrahydro-β-carboline-2-yl]-3-(2-amino-5-pyrimidin-5-yl)-propene-1-one]	< 1000	7		124
O=C(/C=C/c1ccccn1)N1CCc2c([nH]c3ccccc23)C1c1ccc2c(c1)OCO2 (stereo not drawn) [Example 2, (E)-1-[1-(3,4-Methylenedioxyphenyl)-2,3,4,9-tetrahydro-β-carbolin-2-yl]-3-(pyridin-2-yl)-propene-1-one]		76	135 to 141	
